We go through four molecules from patent US20220177538A1, “CO-AGONISTS AT GLP-1 AND GIP RECEPTORS SUITABLE FOR ORAL DELIVERY” (Novo Nordisk A/S, priority 2020, published 2022).

In one test the target is T1, human GIP receptor (Homo sapiens, UniProt P48546).
T1 construct: expressed in transfected cells; host or cells: BHK (parent line BHKTS13), clone BHK CRE luc2P hGIPR
T1 sequence (P48546 22-466): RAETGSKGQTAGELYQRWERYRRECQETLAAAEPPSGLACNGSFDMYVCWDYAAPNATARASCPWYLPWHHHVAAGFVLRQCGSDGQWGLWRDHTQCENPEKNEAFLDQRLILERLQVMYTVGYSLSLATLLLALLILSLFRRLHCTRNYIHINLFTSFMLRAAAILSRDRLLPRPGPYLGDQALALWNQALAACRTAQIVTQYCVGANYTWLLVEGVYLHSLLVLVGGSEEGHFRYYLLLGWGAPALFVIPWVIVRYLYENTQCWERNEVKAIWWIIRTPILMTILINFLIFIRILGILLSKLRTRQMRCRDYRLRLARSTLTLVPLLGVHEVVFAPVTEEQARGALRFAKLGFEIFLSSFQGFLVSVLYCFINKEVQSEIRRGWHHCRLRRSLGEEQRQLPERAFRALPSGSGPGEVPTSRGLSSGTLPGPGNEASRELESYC
The test is described as follows: In vitro functional potency, CRE luciferase reporter, whole BHK cells (hGIPR). The format is cell-based. Particulars: BHK CRE luc2P hGIPR cells. Here is the method: (§1) The in vitro functional potency is the measure of target receptor activation in a whole cell assay.
(§2) In vitro functional potency was determined by measuring the response of the target receptor in a reporter gene assay in individual cell lines. […] When the respective receptor is activated, it results in the production of cAMP, which in turn results in expression of the luciferase protein. When assay incubation is completed, luciferase substrate (luciferin) is added resulting in the enzymatic conversion of luciferin to oxyluciferin and producing bioluminescence. The luminescence is measured as the readout for the assay.
(§3) The cells lines used in these assays were BHK cells with BHKTS13 as a parent cell line. The cell lines were derived from a clone containing the CRE luciferase element and were established by further transfection with the respective human receptor to obtain the relevant cell line: BHK CRE luc2P hGLP-1R or BHK CRE luc2P hGIPR. The cells were cultured at 37° C. with 5% CO2 in Cell Culture Medium. They were aliquoted and stored in liquid nitrogen. The cells were kept in continuous culture and were seeded out the day before each assay.
(§4) GLP-1R Cell Culture Medium consisted of DMEM medium with 10% FBS, 500 µg/mL G418, and 300 µg/mL hygromycin. GIPR Cell Culture Medium consisted of DMEM medium with 10% FBS, 400 µg/mL G418, and 300 µg/mL hygromycin. Assay Buffer consisted of DMEM w/o phenol red, 10 mM Hepes, 1× Glutamax. 1% ovalbumin, and 0.1% Pluronic F-68 with the addition of HSA at twice the final assay concentration.
(§5) 1) Cells were plated at 5000 cells/well and incubated overnight in the assay plate. 2) Cells were washed once in DPBS. 3) Stocks of the test compounds and reference compounds in concentrations ranging from […] were diluted 1:150 in Assay Buffer. Compounds were then diluted 1:10 in column 1 of a 96 deep well dilution plate and then carried across the row creating a 3.5 fold, 12 point dilution curve. 4) Assay Buffer (50 μl aliquot) with or without HSA was added to each well in the assay plate. 5) A 50 μl aliquot of compound or blank was transferred from the dilution plate to the assay plate containing the Assay Buffer with or without HSA. 6) The assay plate was incubated for 3 h in a 5% CO2 incubator at 37° C. 7) The cells were washed once with DPBS. 8) A 100 μl aliquot of DPBS was added to each well of the assay plate. 9) A 100 μl aliquot of steadylite plus reagent (light sensitive) was added to each well of the assay plate. 10) Each assay plate was covered with aluminum foil to protect it from light and shaken at 250 RPM for 30 min at room temperature. 11) Each assay plate was read in a microtiter plate reader.
(§6) The data from the microtiter plate reader was first regressed in an Excel in order to calculate the x-axis, log scale concentrations based on the individual test compound's stock concentration and the dilutions of the assay. […] The software performs a non-linear regression (log(agonist) vs response). A minimum of two replicates was measured for each sample. The reported values are averages of the replicates.

For another test, the target named is human GLP-1 receptor (Homo sapiens, UniProt P43220). Nature of the test: In vitro functional potency, CRE luciferase reporter, whole BHK cells (hGLP-1R). The test is classed as cell-based. Set-up: expressed in transfected cells; host or cells: BHK (parent line BHKTS13), clone BHK CRE luc2P hGLP-1R. Particulars: BHK CRE luc2P hGLP-1R cells. Here is the method: as §1, §2, §3, §4, §5, §6
Sequence of human GLP-1 receptor (P43220 24-463): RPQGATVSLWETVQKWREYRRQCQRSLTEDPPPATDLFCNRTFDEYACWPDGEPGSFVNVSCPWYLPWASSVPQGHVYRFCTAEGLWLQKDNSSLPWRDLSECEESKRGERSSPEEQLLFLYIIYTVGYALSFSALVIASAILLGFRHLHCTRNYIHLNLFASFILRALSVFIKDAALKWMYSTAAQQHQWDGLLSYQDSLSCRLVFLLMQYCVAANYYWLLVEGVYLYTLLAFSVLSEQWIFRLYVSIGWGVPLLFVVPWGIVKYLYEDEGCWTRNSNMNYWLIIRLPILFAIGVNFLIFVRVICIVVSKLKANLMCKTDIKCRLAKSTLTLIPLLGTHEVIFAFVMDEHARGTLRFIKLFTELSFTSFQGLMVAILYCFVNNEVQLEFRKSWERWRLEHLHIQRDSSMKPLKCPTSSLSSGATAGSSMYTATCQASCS

Setting [1] is: 0% HSA, read-out: hGIPR, CRE Luc 0% HSA EC50.
Setting [2] is: hGIPR, CRE Luc 1% HSA EC50, 1% HSA.
Where [3] appears, read: 0% HSA, read-out: hGLP-1R, CRE Luc 0% HSA EC50.
The mark [4] stands for this setting: hGLP-1R, CRE Luc 1% HSA EC50, 1% HSA.

Read-outs that look alike come from different tables or passages of the source. Starred links: 1 amine or outer side, 2 acyl side, 3 side chain; linkers in the order of their positions; H or OH if unused. Non-standard residues stand in square brackets, D forms with d. Residues, ends and D or L forms follow the SMILES beside them. Groups on a side chain read outwards from the residue. *: point of attachment. C20 diacid = O=C(O)CCCCCCCCCCCCCCCCCCC(=O)*; C18 diacid = O=C(O)CCCCCCCCCCCCCCCCC(=O)*; γGlu = O=C(O)[C@H](CCC(=O)[*:2])N[*:1]; εLys = N[C@@H](CCCCN[*:1])C(=O)[*:2]; Aib = CC(C)(N)C(=O)O

For `CC[C@H](C)[C@H](NC(=O)[C@H](CO)NC(=O)[C@H](Cc1ccc(O)cc1)NC(=O)[C@H](CC(=O)O)NC(=O)[C@H](CO)NC(=O)[C@@H](NC(=O)[C@H](Cc1ccccc1)NC(=O)[C@@H](NC(=O)CNC(=O)[C@H](CCC(=O)O)NC(=O)C(C)(C)NC(=O)[C@@H](N)Cc1ccc(O)cc1)[C@@H](C)O)[C@@H](C)O)C(=O)N[C@@H](Cc1ccc(O)cc1)C(=O)N[C@@H](CC(C)C)C(=O)N[C@@H](CCC(=O)O)C(=O)N[C@@H](CCCCNC(=O)[C@@H](N)CCCCNC(=O)[C@@H](N)CCCCNC(=O)CC[C@H](NC(=O)CCCCCCCCCCCCCCCCCCC(=O)O)C(=O)O)C(=O)N[C@@H](CCC(N)=O)C(=O)N[C@@H](C)C(=O)N[C@@H](C)C(=O)N[C@@H](CCC(N)=O)C(=O)N[C@@H](CCC(=O)O)C(=O)N[C@@H](Cc1ccccc1)C(=O)N[C@H](C(=O)N[C@@H](CC(N)=O)C(=O)N[C@@H](Cc1c[nH]c2ccccc12)C(=O)N[C@@H](CC(C)C)C(=O)N[C@@H](CC(C)C)C(=O)N[C@@H](C)C(=O)NCC(=O)NCC(=O)N1CCC[C@H]1C(=O)N[C@@H](CO)C(=O)N[C@@H](CO)C(=O)NCC(=O)N[C@@H](C)C(=O)N1CCC[C@H]1C(=O)N1CCC[C@H]1C(=O)N1CCC[C@H]1C(=O)N[C@@H](CO)C(N)=O)C(C)C` [Compound 1] (H-Y[Aib]EGTFTSDYSIYLEK([εLys-εLys-γGlu-C20 diacid])QAAQEFVNWLLAGGPSSGAPPPS-NH2), the EC50 was found to be 0.0028 nM on human GIP receptor (setting [1]), 0.173 nM on human GIP receptor (setting [2]), 0.0078 nM at human GLP-1 receptor (setting [3]) and 1.66 nM on human GLP-1 receptor (setting [4]).
Regarding `CC[C@H](C)[C@H](NC(=O)[C@H](Cc1ccccc1)NC(=O)[C@H](CCC(=O)O)NC(=O)[C@H](CCCNC(=N)N)NC(=O)[C@H](C)NC(=O)[C@H](C)NC(=O)[C@H](CCCCNC(=O)[C@@H](N)CCCCNC(=O)[C@@H](N)CCCCNC(=O)CC[C@H](NC(=O)CCCCCCCCCCCCCCCCC(=O)O)C(=O)O)NC(=O)[C@H](CCC(=O)O)NC(=O)[C@H](CCC(=O)O)NC(=O)[C@H](CC(C)C)NC(=O)[C@H](Cc1ccc(O)cc1)NC(=O)[C@@H](NC(=O)[C@H](CO)NC(=O)[C@H](Cc1ccc(O)cc1)NC(=O)[C@H](CC(=O)O)NC(=O)[C@H](CO)NC(=O)[C@@H](NC(=O)[C@H](Cc1ccccc1)NC(=O)[C@@H](NC(=O)CNC(=O)[C@H](CCC(=O)O)NC(=O)C(C)(C)NC(=O)[C@@H](N)Cc1ccc(O)cc1)[C@@H](C)O)[C@@H](C)O)[C@@H](C)CC)C(=O)N[C@@H](CC(N)=O)C(=O)N[C@@H](Cc1c[nH]c2ccccc12)C(=O)N[C@@H](CC(C)C)C(=O)N[C@@H](CC(C)C)C(=O)N[C@@H](C)C(=O)NCC(=O)NCC(=O)N1CCC[C@H]1C(=O)N[C@@H](CO)C(=O)N[C@@H](CO)C(=O)NCC(=O)N[C@@H](C)C(=O)N1CCC[C@H]1C(=O)N1CCC[C@H]1C(=O)N1CCC[C@H]1C(=O)N[C@@H](CO)C(=O)O` [Compound 38] (H-Y[Aib]EGTFTSDYSIYLEEK([εLys-εLys-γGlu-C18 diacid])AAREFINWLLAGGPSSGAPPPS-OH), the EC50 at human GIP receptor (setting [1]) is 0.0124 nM; at human GIP receptor (setting [2]), 0.815 nM; at human GLP-1 receptor (setting [3]) it was 0.0031 nM; on human GLP-1 receptor (setting [4]) it was 0.259 nM.
As for `CC[C@H](C)[C@H](NC(=O)[C@H](Cc1ccccc1)NC(=O)[C@H](CCC(=O)O)NC(=O)[C@H](CCCNC(=N)N)NC(=O)[C@H](C)NC(=O)[C@H](C)NC(=O)[C@H](CCC(N)=O)NC(=O)[C@H](CCCCNC(=O)[C@@H](N)CCCCNC(=O)[C@@H](N)CCCCNC(=O)CC[C@H](NC(=O)CCCCCCCCCCCCCCCCC(=O)O)C(=O)O)NC(=O)[C@H](CCC(=O)O)NC(=O)[C@H](CC(C)C)NC(=O)[C@H](CC(C)C)NC(=O)[C@@H](NC(=O)[C@H](CO)NC(=O)[C@H](Cc1ccc(O)cc1)NC(=O)[C@H](CC(=O)O)NC(=O)[C@H](CO)NC(=O)[C@@H](NC(=O)[C@H](Cc1ccccc1)NC(=O)[C@@H](NC(=O)CNC(=O)[C@H](CCC(=O)O)NC(=O)C(C)(C)NC(=O)[C@@H](N)Cc1ccc(O)cc1)[C@@H](C)O)[C@@H](C)O)[C@@H](C)CC)C(=O)N[C@@H](CC(N)=O)C(=O)N[C@@H](Cc1c[nH]c2ccccc12)C(=O)N[C@@H](CC(C)C)C(=O)N[C@@H](CC(C)C)C(=O)N[C@@H](C)C(=O)NCC(=O)NCC(=O)N1CCC[C@H]1C(=O)O` [Compound 19] (H-Y[Aib]EGTFTSDYSILLEK([εLys-εLys-γGlu-C18 diacid])QAAREFINWLLAGGP-OH), the EC50 on human GIP receptor (setting [1]) came out at 0.0065 nM; at human GIP receptor (setting [2]) it was 0.275 nM; at human GLP-1 receptor (setting [3]), 0.0086 nM; on human GLP-1 receptor (setting [4]), 0.365 nM.
For `CC[C@H](C)[C@H](NC(=O)[C@H](Cc1ccccc1)NC(=O)[C@H](CCC(=O)O)NC(=O)[C@H](CCCNC(=N)N)NC(=O)[C@H](C)NC(=O)[C@H](C)NC(=O)[C@H](CCC(N)=O)NC(=O)[C@H](CCCCNC(=O)[C@@H](N)CCCCNC(=O)[C@@H](N)CCCCNC(=O)CC[C@H](NC(=O)CCCCCCCCCCCCCCCCC(=O)O)C(=O)O)NC(=O)[C@H](CCC(=O)O)NC(=O)[C@H](CC(C)C)NC(=O)[C@H](CC(C)C)NC(=O)[C@@H](NC(=O)[C@H](CO)NC(=O)[C@H](Cc1ccc(O)cc1)NC(=O)[C@H](CC(=O)O)NC(=O)[C@H](CO)NC(=O)[C@@H](NC(=O)[C@H](Cc1ccccc1)NC(=O)[C@@H](NC(=O)CNC(=O)[C@H](CCC(=O)O)NC(=O)C(C)(C)NC(=O)[C@@H](N)Cc1ccc(O)cc1)[C@@H](C)O)[C@@H](C)O)[C@@H](C)CC)C(=O)N[C@@H](CCC(N)=O)C(=O)N[C@@H](Cc1c[nH]c2ccccc12)C(=O)N[C@@H](CC(C)C)C(=O)N[C@@H](CC(C)C)C(=O)N[C@@H](C)C(=O)NCC(=O)NCC(=O)N1CCC[C@H]1C(=O)N[C@@H](CO)C(=O)N[C@@H](CO)C(=O)NCC(=O)N[C@@H](C)C(=O)N1CCC[C@H]1C(=O)N1CCC[C@H]1C(=O)N1CCC[C@H]1C(=O)N[C@@H](CO)C(=O)O` [Compound 23] (H-Y[Aib]EGTFTSDYSILLEK([εLys-εLys-γGlu-C18 diacid])QAAREFIQWLLAGGPSSGAPPPS-OH), the EC50 at human GIP receptor (setting [1]) is 0.0067 nM; at human GIP receptor (setting [2]), 0.134 nM; on human GLP-1 receptor (setting [3]) it was 0.0041 nM; on human GLP-1 receptor (setting [4]), 0.118 nM.
